Data published in US11439707B2, “Hypocrellin derivative substituted both in a peri-position and in 2-position by amino, preparation method, and application thereof” (priority 2017, dated 2022).

How the values were obtained:
Hela cells = assay: photo-cytotoxicity experiment (MTT, 635 nm laser); type: cell-based; details: 635 nm light
Protocol: Photo-cytotoxicity experiment on cell: cultured Hela cells were digested and pipetted with 0.25% trypsin and to prepare a single-cell suspension, the number of cells was adjusted to about 2×10^4 per milliliter, and 200 uL of the suspension was seeded in a well of a 96-well culture plate, which is placed in a 37° C. incubator containing 5% CO2 for cultivation. After the cells adhere to the wall, a supernatant culture solution was discarded, and photosensitizers of different concentrations, that is, the hematoporphyrin derivative HpD, the hypocrellin B HB, or HB-1c-PEG6 synthesized in example 3, were added in a strictly lucifugous condition in accordance with experimental designs, and the culture plate was placed in the 37° C. incubator containing 5% CO2 for further cultivation and incubation for 1 hour. Then, a semiconductor laser with a wavelength of 635 nm was used for irradiation, a power density was adjusted to 20 mW/cm^2, light beams were evenly and vertically applied onto the 96-well culture plate, and an irradiation time was 1000 S. In addition, each 96-well culture plate is provided with a blank group, and 6 holes were provided for in each condition. After irradiation, the culture plate was placed in the 37° C. incubator containing 5% CO2 for further cultivation and incubation for 24 hours, and then a cellular survival rate was measured. The cellular survival rate was measured by means of the MTT method. 20 uL of MTT was added to each well, wherein the MTT is MTT prepared with PBS and having a concentration of 5 mg/ml. The culture plate was placed in the 37° C. incubator containing 5% CO2 for further cultivation for 4 hours, after which the cultivation was terminated. A supernatant in the well was extracted and discarded carefully. Then, 150 uL of dimethyl sulfoxide (DMSO) was added to each well, and the culture plate was shaken by using a micro shaker for 10 minutes to fully dissolve a purple crystal substance. A wavelength of 570 nm was selected to measure an optical density value (i.e., OD value) of each well on a microplate reader, and the cellular survival rate was calculated in accordance with the following formula: cellular survival rate=OD value of an experimental group/OD value of a blank group×100%.

[1] = singlet oxygen efficiency test, reference rose bengal; type: physicochemical
[2] = absorption spectrum (maximum absorption wavelength, molar extinction coefficient); type: physicochemical

Compound | Hela cells killed (Hela cells; 140 nM, FIG. 13(b)) [%] | Hela cells killed (Hela cells; 200 nM, FIG. 14(b)) [%] | Hela cells killed (Hela cells; 240 nM, FIG. 15(b)) [%] | singlet oxygen yield [1] [%] | maximum absorption wavelength [2] [nm] | molar extinction coefficient [2]
COc1c2c3c4c(c(OC)c(=O)c5c(O)cc(OC)c(c6c(OC)cc(O)c(c1=O)c63)c54)CC(C)=C2 [HC, deacetyl hypocrellin] | 40 | 50 | 50 |  |  | 
COCCOC(=O)C1CCCC(Nc2c(NC3CCCC(C(=O)OCCOC)C3)c3c(=O)cc(OC)c4c5c(OC)cc(=O)c6c(O)c(OC)c7c(c(c2C=C(C)C7C(C)=O)c34)c65)C1 (stereo not drawn) [HB-15a-PEG1] |  |  |  | 30 | 624 | 30,000 M^−1cm^−1
COc1c2c3c4c(c(NCCOCCO)c(=O)c5c(O)cc(OC)c(c6c(OC)cc(NCCOCCO)c(c1=O)c63)c54)C=C(C)C2 [HC-1d] |  |  |  | 32 | 626 | 28,500 M^−1cm^−1
COc1c2c3c4c(c(NC5CCC(C(=O)O)C5)c(=O)c5c(NC6CCC(C(=O)O)C6)cc(OC)c(c6c(OC)cc(O)c(c1=O)c63)c54)C=C(C)C2C(C)=O (stereo not drawn) [HB-19c] |  |  |  | 24 | 622 | 25,500 M^−1cm^−1
COCCOCCOCCOCCOCCOCCOCCC(=O)OCCOCCNc1c(O)c2c(=O)cc(OC)c3c4c(OC)cc(=O)c5c(NCCOCCOC(=O)CCOCCOCCOCCOCCOCCOCCOC)c(OC)c6c(c(c1C=C(C)C6)c23)c54 [HC-1b-PEG6] |  |  |  | 30 | 624 | 30,000 M^−1cm^−1
COc1c(O)c2c(=O)cc(OC)c3c4c(OC)cc(=O)c5c(NC6(CO)CC6)c(NC6(CO)CC6)c6c(c(c1C(C(C)=O)C(C)=C6)c23)c54 (stereo not drawn) [HB-35a] |  |  |  | 32 | 621 | 30,500 M^−1cm^−1
COc1c2c3c4c(c(NC5CCC(C(=O)O)CC5)c(=O)c5c(O)cc(OC)c(c6c(OC)cc(NC7CCC(C(=O)O)CC7)c(c1=O)c63)c54)C=C(C)C2C(C)=O (stereo not drawn) [HB-14d] |  |  |  | 24 | 623 | 27,000 M^−1cm^−1
COCCOCCOCCOCCOCCOCCOCCOCCOC(=O)C1CCC(CNc2c3c4c5c(c(OC)c(=O)c6c(O)cc(OC)c(c7c(OC)cc(NCC8CCC(C(=O)OCCOCCOCCOCCOCCOCCOCCOCCOC)CC8)c(c2=O)c74)c65)CC(C)=C3)CC1 (stereo not drawn) [HC-13c-PEG8] |  |  |  | 38 | 628 | 32,500 M^−1cm^−1
COc1c2c3c4c(c(NCCCCCC(=O)O)c(=O)c5c(O)cc(OC)c(c6c(OC)cc(NCCCCCC(=O)O)c(c1=O)c63)c54)C=C(C)C2 [HC-9d] |  |  |  | 26 | 624 | 25,000 M^−1cm^−1
COc1c(NCS(=O)(=O)O)c2c(=O)cc(OC)c3c4c(OC)cc(=O)c5c(O)c(NCCCS(=O)(=O)O)c6c(c(c1CC(C)=C6)c23)c54 [HC-45b] |  |  |  | 20 | 618 | 21,500 M^−1cm^−1
COc1c2c3c4c(c(NCCOCCO)c(=O)c5c(O)cc(OC)c(c6c(OC)cc(NCCOCCO)c(c1=O)c63)c54)C=C(C)C2C(C)=O (stereo not drawn) [HB-1d] |  |  |  | 35 | 622 | 30,000 M^−1cm^−1
COCCOCCOCCOCCOCCOCCOC(=O)CCCNc1c2c3c4c(c(OC)c(=O)c5c(NCCCC(=O)OCCOCCOCCOCCOCCOCCOC)cc(OC)c(c6c(OC)cc(O)c(c1=O)c63)c54)CC(C)=C2 [HC-8d-PEG6] |  |  |  | 32 | 624 | 31,500 M^−1cm^−1
COCCOCCOCCOCCOCCOCCOCCOCCOCCOCCOCCOCCOC(=O)C1CCC(Nc2c3c4c5c(c(OC)c(=O)c6c(O)cc(OC)c(c7c(OC)cc(NC8CCC(C(=O)OCCOCCOCCOCCOCCOCCOCCOCCOCCOCCOCCOCCOC)C8)c(c2=O)c74)c65)C(C(C)=O)C(C)=C3)C1 (stereo not drawn) [HB-19c-PEG12] |  |  |  | 38 | 636 | 33,500 M^−1cm^−1
COc1c2c3c4c(c(NC(CC(=O)O)C(=O)O)c(=O)c5c(NC(CC(=O)O)C(=O)O)cc(OC)c(c6c(OC)cc(O)c(c1=O)c63)c54)C=C(C)C2C(C)=O (stereo not drawn) [HB-27c] |  |  |  | 21 | 625 | 21,500 M^−1cm^−1
COc1c2c3c4c(c(NC(CCC(=O)O)C(=O)O)c(=O)c5c(NC(CCC(=O)O)C(=O)O)cc(OC)c(c6c(OC)cc(O)c(c1=O)c63)c54)C=C(C)C2C(C)=O (stereo not drawn) [HB-28c] |  |  |  | 22 | 625 | 21,500 M^−1cm^−1
COc1c(O)c2c(=O)cc(OC)c3c4c(OC)cc(=O)c5c(NCCOCCO)c(NCCOCCO)c6c(c(c1CC(C)=C6)c23)c54 [HC-1a] |  |  |  | 36 | 628 | 28,000 M^−1cm^−1
COc1c2c3c4c(c(NCCO)c(=O)c5c(O)cc(OC)c(c6c(OC)cc(NCCO)c(c1=O)c63)c54)C=C(C)C2C(C)=O (stereo not drawn) [HB-2d] |  |  |  | 26 | 629 | 30,000 M^−1cm^−1
COc1c(NCC(=O)O)c2c(=O)cc(OC)c3c4c(OC)cc(=O)c5c(O)c(NCC(=O)O)c6c(c(c1CC(C)=C6)c23)c54 [HC-7b] |  |  |  | 25 | 622 | 28,500 M^−1cm^−1
COCCOCCOCCOCCOCCOCCOC(=O)CCCNc1c(O)c2c(=O)cc(OC)c3c4c(OC)cc(=O)c5c(NCCCC(=O)OCCOCCOCCOCCOCCOCCOC)c(OC)c6c(c(c1C=C(C)C6C(C)=O)c23)c54 (stereo not drawn) [HB-8b-PEG6] |  |  |  | 30 | 622 | 30,000 M^−1cm^−1
COc1c2c3c4c(c(NCCC(=O)O)c(=O)c5c(O)cc(OC)c(c6c(OC)cc(NCCC(=O)O)c(c1=O)c63)c54)C=C(C)C2C(C)=O (stereo not drawn) [HB-10d] |  |  |  | 32 | 621 | 32,500 M^−1cm^−1
COc1c(NCCCC(=O)O)c2c(=O)cc(OC)c3c4c(OC)cc(=O)c5c(O)c(NCC(=O)O)c6c(c(c1C(C(C)=O)C(C)=C6)c23)c54 (stereo not drawn) [HB-43b] |  |  |  | 25 | 618 | 26,000 M^−1cm^−1
COc1c(O)c2c(=O)cc(OC)c3c4c(OC)cc(=O)c5c(NC(C(=O)O)C(C)C)c(NC(C(=O)O)C(C)C)c6c(c(c1C(C(C)=O)C(C)=C6)c23)c54 (stereo not drawn) [HB-22a] |  |  |  | 18 | 621 | 21,000 M^−1cm^−1
COc1c(O)c2c(=O)cc(OC)c3c4c(OC)cc(=O)c5c(NCc6ccccn6)c(NCc6ccccn6)c6c(c(c1C(C(C)=O)C(C)=C6)c23)c54 (stereo not drawn) [HB-38a] |  |  |  | 16 | 624 | 19,000 M^−1cm^−1
COc1c2c3c4c(c(NC(C(=O)O)C(C)C)c(=O)c5c(NC(C(=O)O)C(C)C)cc(OC)c(c6c(OC)cc(O)c(c1=O)c63)c54)C=C(C)C2C(C)=O (stereo not drawn) [HB-22c] |  |  |  | 22 | 620 | 21,500 M^−1cm^−1
COc1c2c3c4c(c(NC(CS)C(=O)O)c(=O)c5c(NC(CS)C(=O)O)cc(OC)c(c6c(OC)cc(O)c(c1=O)c63)c54)C=C(C)C2C(C)=O (stereo not drawn) [HB-25c] |  |  |  | 20 | 632 | 21,500 M^−1cm^−1
COCCOCCOCCOCCOCCNC(=O)C1CCC(CNc2c(O)c3c(=O)cc(OC)c4c5c(OC)cc(=O)c6c(NCC7CCC(C(=O)NCCOCCOCCOCCOCCOC)CC7)c(OC)c7c(c(c2C=C(C)C7C(C)=O)c34)c65)CC1 (stereo not drawn) [HB-13b-NH-PEG4] |  |  |  | 34 | 622 | 31,000 M^−1cm^−1
COCCOC(=O)C1CCCCC1Nc1c(NC2CCCCC2C(=O)OCCOC)c2c(=O)cc(OC)c3c4c(OC)cc(=O)c5c(O)c(OC)c6c(c(c1C=C(C)C6C(C)=O)c23)c54 (stereo not drawn) [HB-16a-PEG1] |  |  |  | 32 | 624 | 30,500 M^−1cm^−1
COc1c(O)c2c(=O)cc(OC)c3c4c(OC)cc(=O)c5c(NCCO)c(NCCO)c6c(c(c1CC(C)=C6)c23)c54 [HC-2a] |  |  |  | 32 | 627 | 28.500 M⁻¹ cm⁻¹
COc1c(NCCOCCO)c2c(=O)cc(OC)c3c4c(OC)cc(=O)c5c(O)c(NCCOCCO)c6c(c(c1C(C(C)=O)C(C)=C6)c23)c54 (stereo not drawn) [HB-1b] |  |  |  | 36 | 622 | 28,000 M^−1cm^−1
